The results in this text go back to publication PMC12073497 (Molecules, 2025).

Several values for one entry are separate records, joined by “and”; a condition that tells them apart may be missing. Identical values can stand only once.

α-glucosidase (Sigma, type III, from yeast), sequence (P53341 whole entry): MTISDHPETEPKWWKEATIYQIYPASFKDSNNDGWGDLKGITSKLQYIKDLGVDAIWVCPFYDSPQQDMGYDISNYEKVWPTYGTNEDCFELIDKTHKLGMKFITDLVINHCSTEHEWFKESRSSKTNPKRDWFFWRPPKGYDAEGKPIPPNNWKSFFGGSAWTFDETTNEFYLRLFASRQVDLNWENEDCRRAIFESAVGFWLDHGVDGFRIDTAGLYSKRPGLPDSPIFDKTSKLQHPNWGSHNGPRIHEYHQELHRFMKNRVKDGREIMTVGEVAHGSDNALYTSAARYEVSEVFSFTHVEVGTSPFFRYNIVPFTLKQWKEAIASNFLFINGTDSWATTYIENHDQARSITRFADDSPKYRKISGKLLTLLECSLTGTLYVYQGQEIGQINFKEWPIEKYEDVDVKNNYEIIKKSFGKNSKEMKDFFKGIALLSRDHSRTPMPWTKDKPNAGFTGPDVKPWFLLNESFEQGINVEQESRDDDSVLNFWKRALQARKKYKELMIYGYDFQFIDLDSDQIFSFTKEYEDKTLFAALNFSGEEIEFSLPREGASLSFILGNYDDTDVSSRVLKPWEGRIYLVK

Test system in one assay: not listed separately
Nature of the assay: DPPH radical scavenging (antioxidant) assay. The following applies: means of triplicate ± SEM. The assay is classed as biochemical. From the text:
Oxidative stress is an imbalance between in vivo generated reactive oxygen/ nitrogen species (ROS/NOS) and the cellular antioxidant defenses. Oxidative stress is connected with more than one hundred illnesses that include cardiovascular, cancer, neurogenerative diseases, hypertension, atherosclerosis, and diabetes mellitus. Antioxidants decrease the cellular level of ROS and thus play a significant role in preventing related diseases. Antioxidants react with ROS through three possible mechanisms: (i) hydrogen transfer, (ii) electron transfer, and (iii) metal chelation. DPPH radical scavenging assay relies on the electron/hydrogen atom transfer (mixed) mechanism. The prepared crown ethers with variable cavity sizes 10a–d, parent precursor (FABE) 8, and the novel intermediate 7 were examined for antioxidant behavior using the DPPH radical scavenging protocol, following the literature, and the results are shown in Table 1.
Gulcin et al. proposed a method for the free radical scavenging activity (antioxidant activity) using 1,1-diphenyl-2-picryl-hydrazil (DPPH). An ethanolic solution of DPPH was prepared at a concentration of 0.3 mM. In the next step, different concentrations of each sample were prepared in ethanol, ranging from (62.5–500 μg) by mixing 5 microliters of each sample with 95 µL of DPPH solution. The resulting mixture was transferred to 96-well plates and incubated for 30 min at 37 °C. A microtiter plate reader (Spectramax plus 384 Molecular Device, San Jose, CA, USA) was used to measure the absorbance at 515 nm, and the radical scavenging activity (%) was compared with the methanol-treated control. The standard for the protocol was Butyl hydroxyanisole (BHA). DPPH scavenging effect (%) = Ac − As/Ac × 100, where Ac is the absorbance of the control (DMSO-treated), and As is the absorbance of the sample.
`COc1ccc(O)cc1C(C)(C)C` [Butylated hydroxyanisole, reference compound]: the midpoint of inhibition, the IC50, lay at 44.2 ± 0.3 µM.

As to `CCCCOC(=O)/C(CCC=C(C)C)=C1\[C@@H](OC(C)=O)C[C@@]2(C)[C@@H]1CC(O)[C@@H]1[C@@]3(C)CCC(O)[C@@H](C)C3CC[C@@]12C` (some centres unmarked) [Compound 8, Butyl(2Z)-2-[(4a,8a,14b,16b)-16-(acetyloxy)-3,11-dihydroxy-4,8,10,14-tetramethylgonan-17-ylidene]-6-methylhept-5-enoate], half-maximal inhibition (IC50) was put at 54.6 ± 0.2 µM. Consider `CCCCOC(=O)C(CCC=C(C)C)=C1C(OC(C)=O)CC2(C)C1CC1OCCOCCOC3CCC4(C)C(CCC2(C)C14)C3C` [Compound 10a, Butyl(2Z)-2-[(3aS,16S,17aS,17bS,18S)-16-(acetyloxy)-3a,17a,17b,18-tetramethyloctahydro-3,6 methanocyclopenta[3,4]naptho[1,8hi][1,4,7]trioxyacylotridecin-15(1H)-ylidene]-6-methylhept-5-enoate], for which it took 65.5 ± 0.3 µM to reach half-maximal inhibition (IC50). With `CCCCOC(=O)/C(CCC=C(C)C)=C1/C2CC3OCCOCCOCCOC4CC[C@@]5(C)C(CC[C@@](C)(C35)[C@@]2(C)C[C@@H]1OC(C)=O)[C@@H]4C` (stereo partly drawn) [Compound 10b, Butyl(2Z)-2-[(3aS,19S,20aS,20bS,21S)-19-(acetyloxy)-3a,20a,20b,21-tetramethylicosahydro-3,6-methanocyclopenta[3,4]naphtho[1,8-kl][1,4,7,10]tetraoxacyclohexadecin-18(1H)-ylidene]-6-methylhept-5-enoate], the IC50 was 22.5 µM and 32.1 µM. With `CCCCOC(=O)/C(CCC=C(C)C)=C1/C2CC3OCCOCCOCCOCCOC4CC[C@@]5(C)C(CC[C@@](C)(C35)[C@@]2(C)C[C@@H]1OC(C)=O)[C@@H]4C` (stereo partly drawn) [Compound 10c, Butyl(2Z)-2-[(3aS,22S,23aS,23bS,24S)-22-(acetyloxy)-3a,23a,23b,24-tetramethyldocosahydro-3,6-methanocyclopenta[3,4]naphtho[1,8-no][1,4,7,10,13]pentaoxacyclononadecin-21(1H)-ylidene]-6-methylhept-5-enoate], the IC50 is 32.1 µM and 22.5 µM.

In turn, `CCCCOC(O)(OC(=NC1CCCCC1)NC1CCCCC1)/C(CCC=C(C)C)=C1\[C@@H](OC(C)=O)C[C@@]2(C)[C@H]1C[C@@H](O)[C@H]1[C@@]3(C)CC[C@@H](O)[C@@H](C)[C@@H]3CC[C@@]12C` (some centres unmarked) [Intermediate 7] gave an IC50 of 32.9 ± 0.4 µM. The same measure, in the same setting: the same measure for “Butyl(2Z)-2-[(3aS,27S,28aS,28bS,29S)-27-(acetyloxy)-3a,28a,28b,29-tetramethyltetracosahydro-3,6-methanocyclopenta[3,4] naphtho[1,8-st][1,3,6,9,12,15,18]heptaoxacyclotetracosin-26(1H)-ylidene]-6- methylhept-5-enoate [Compound 10d]”: 45.4 ± 0.9 µM.

A further assay addresses α-glucosidase (Sigma, type III, from yeast) (Saccharomyces cerevisiae, UniProt P53341). Nature of the assay: α-Glucosidase inhibition assay. The assay is classed as biochemical. The note with it: means of triplicate ± SEM.
Method: In this background, according to the standard protocol [51], we examined the prepared crown ether molecules 10a–d along with parent precursor FABE 8 and the novel intermediate 7 for their in vitro α-glucosidase inhibition potential.
The protocol for the α-Glucosidase inhibition assay is built on the formation of product as a result of substrate breakdown, detected by absorbance measurement [69]. In the first step, an enzyme α-glucosidase (Sigma, type III, from yeast) was prepared in buffer solution A (0.1 mol/L potassium phosphate, 3.2 mmol/L-MgCl2, pH = 6.8) (0.1 units/mL) mixed with p-nitrophenyl-α-D-glucopyranoside dissolved to obtain the desired concentration of substrate of 6 mmol/L. Another Buffer solution B (102 µL) was prepared by mixing (0.5 M KH2PO4, 16 mmol/L-MgCl2, pH = 6.8) along with 120 µL of sample solution (0.6 mg/mL in dimethyl sulfoxide), 282 µL of water and 200 µL of substrate. In the next step, 200 µL of enzyme was added in the same reaction mixture, incubated for 5 min at 37 °C. […] The activity of enzyme inhibition was measured at 410 nm by its absorbance. […] The inhibition% is equal to Ac − As/Ac × 100, where Ac is the absorbance (control), and As is the absorbance (Sample).
Regarding “Butyl(2Z)-2-[(3aS,27S,28aS,28bS,29S)-27-(acetyloxy)-3a,28a,28b,29-tetramethyltetracosahydro-3,6-methanocyclopenta[3,4] naphtho[1,8-st][1,3,6,9,12,15,18]heptaoxacyclotetracosin-26(1H)-ylidene]-6- methylhept-5-enoate [Compound 10d]”, the IC50 amounted to 54.3 ± 0.1 µM.
